According to PMC10600239, “Selective MCL-1 inhibitor ABBV-467 is efficacious in tumor models but is associated with cardiac troponin increases in patients” (Communications Medicine, 2023):

Legend:
Test in all cases: Off-target profiling (Supplementary Data 1)
[1] = target: off-target receptors, ion channels, and transporters (Homo sapiens, UniProt O60674); conditions: TR-FRET Kinome; Invitrogen A-1167389.7 .006(Subs Conc)
[2] = target: off-target receptors, ion channels, and transporters (Homo sapiens, UniProt P00519); conditions: TR-FRET Kinome; Invitrogen A-1196581.2 .007(Subs Conc)
[3] = target: off-target receptors, ion channels, and transporters (Homo sapiens, UniProt P06239); conditions: TR-FRET Kinome; Invitrogen A-1167389.7 .1(Subs Conc)
[4] = target: off-target receptors, ion channels, and transporters (Homo sapiens, UniProt P07949); conditions: TR-FRET Kinome; Invitrogen A-1180691.2 .1(Subs Conc)
[5] = target: off-target receptors, ion channels, and transporters (Homo sapiens, UniProt P08588)
[6] = target: off-target receptors, ion channels, and transporters (Homo sapiens, UniProt P08908)
[7] = target: off-target receptors, ion channels, and transporters (Homo sapiens, UniProt P15056); conditions: TR-FRET Kinome; Invitrogen A-1196442.2 .05(Subs Conc)
[8] = target: off-target receptors, ion channels, and transporters (Homo sapiens, UniProt P17948); conditions: TR-FRET Kinome; Invitrogen A-1167389.7 .0125(Subs Conc)
[9] = target: off-target receptors, ion channels, and transporters (Homo sapiens, UniProt P24941); conditions: TR-FRET Kinome; Invitrogen A-1233106.2 .025(Subs Conc)
[10] = target: off-target receptors, ion channels, and transporters (Homo sapiens, UniProt P30291); conditions: TR-FRET Kinome; Carna Biosciences A-1248830.7 .015(Subs Conc)
[11] = target: off-target receptors, ion channels, and transporters (Homo sapiens, UniProt P34947); conditions: TR-FRET Kinome; Invitrogen A-1180691.2 .1(Subs Conc)
[12] = target: off-target receptors, ion channels, and transporters (Homo sapiens, UniProt P37231); conditions: Bioprofiling 6pt Ag
[13] = target: off-target receptors, ion channels, and transporters (Homo sapiens, UniProt P42681); conditions: TR-FRET Kinome; SignalChem A-1224127.6 .005(Subs Conc)
[14] = target: off-target receptors, ion channels, and transporters (Homo sapiens, UniProt P43403); conditions: TR-FRET Kinome; SignalChem A-1167389.7 .015(Subs Conc)
[15] = target: off-target receptors, ion channels, and transporters (Homo sapiens, UniProt P45983); conditions: TR-FRET Kinome; Invitrogen A-1196442.2 .1(Subs Conc)
[16] = target: off-target receptors, ion channels, and transporters (Homo sapiens, UniProt P49760); conditions: TR-FRET Kinome; Invitrogen A-1180691.2 .05(Subs Conc)
[17] = target: off-target receptors, ion channels, and transporters (Homo sapiens, UniProt P51812); conditions: TR-FRET Kinome; Invitrogen A-1169612.6 .0015(Subs Conc)
[18] = target: off-target receptors, ion channels, and transporters (Homo sapiens, UniProt Q02750); conditions: TR-FRET Kinome; Invitrogen A-1169612.6 .025(Subs Conc)
[19] = target: off-target receptors, ion channels, and transporters (Homo sapiens, UniProt Q05397); conditions: TR-FRET Kinome; Invitrogen A-1167389.7 .05(Subs Conc)
[20] = target: off-target receptors, ion channels, and transporters (Homo sapiens, UniProt Q08345); conditions: TR-FRET Kinome; Invitrogen A-1196581.2 .003(Subs Conc)
[21] = target: off-target receptors, ion channels, and transporters (Homo sapiens, UniProt Q12851); conditions: TR-FRET Kinome; Invitrogen A-1169612.6 .04(Subs Conc)
[22] = target: off-target receptors, ion channels, and transporters (Homo sapiens, UniProt Q13043); conditions: TR-FRET Kinome; Invitrogen A-1167389.7 .025(Subs Conc)
[23] = target: off-target receptors, ion channels, and transporters (Homo sapiens, UniProt Q14164); conditions: TR-FRET Kinome; Invitrogen A-1167389.7 .003(Subs Conc)
[24] = target: off-target receptors, ion channels, and transporters (Homo sapiens, UniProt Q16539); conditions: TR-FRET Kinome; Invitrogen IVGN Tracer 199 .05(Subs Conc)
[25] = target: off-target receptors, ion channels, and transporters (Homo sapiens, UniProt Q8IU85); conditions: TR-FRET Kinome; Invitrogen A-1167389.7 .025(Subs Conc)

Sequence of off-target receptors, ion channels, and transporters (Homo sapiens, UniProt P08908) (P08908 whole entry): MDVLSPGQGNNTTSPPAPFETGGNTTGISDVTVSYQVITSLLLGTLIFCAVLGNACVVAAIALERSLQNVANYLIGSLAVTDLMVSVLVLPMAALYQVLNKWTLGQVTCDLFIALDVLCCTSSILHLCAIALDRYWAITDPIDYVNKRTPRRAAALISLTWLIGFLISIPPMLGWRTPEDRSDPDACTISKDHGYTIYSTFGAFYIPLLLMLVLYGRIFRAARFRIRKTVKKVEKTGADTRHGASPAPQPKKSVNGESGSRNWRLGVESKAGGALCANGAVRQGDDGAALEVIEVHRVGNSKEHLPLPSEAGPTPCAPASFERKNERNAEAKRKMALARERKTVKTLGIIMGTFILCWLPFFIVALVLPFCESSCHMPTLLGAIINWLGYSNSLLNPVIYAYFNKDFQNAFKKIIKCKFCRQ
Sequence of off-target receptors, ion channels, and transporters (Homo sapiens, UniProt P08588) (P08588 whole entry): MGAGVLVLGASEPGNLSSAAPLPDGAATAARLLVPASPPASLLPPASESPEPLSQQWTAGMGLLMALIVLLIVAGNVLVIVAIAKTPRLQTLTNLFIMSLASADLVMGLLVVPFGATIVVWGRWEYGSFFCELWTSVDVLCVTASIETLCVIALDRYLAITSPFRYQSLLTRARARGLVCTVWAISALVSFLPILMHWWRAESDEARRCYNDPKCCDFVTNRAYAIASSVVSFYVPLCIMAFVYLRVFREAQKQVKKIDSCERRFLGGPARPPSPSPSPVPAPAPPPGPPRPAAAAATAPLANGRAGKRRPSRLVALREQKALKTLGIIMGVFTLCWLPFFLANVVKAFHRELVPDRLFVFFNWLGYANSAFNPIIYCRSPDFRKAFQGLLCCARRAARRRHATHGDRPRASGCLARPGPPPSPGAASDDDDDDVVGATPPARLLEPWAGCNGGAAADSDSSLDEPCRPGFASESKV
Sequence of off-target receptors, ion channels, and transporters (Homo sapiens, UniProt P49760) (P49760 whole entry): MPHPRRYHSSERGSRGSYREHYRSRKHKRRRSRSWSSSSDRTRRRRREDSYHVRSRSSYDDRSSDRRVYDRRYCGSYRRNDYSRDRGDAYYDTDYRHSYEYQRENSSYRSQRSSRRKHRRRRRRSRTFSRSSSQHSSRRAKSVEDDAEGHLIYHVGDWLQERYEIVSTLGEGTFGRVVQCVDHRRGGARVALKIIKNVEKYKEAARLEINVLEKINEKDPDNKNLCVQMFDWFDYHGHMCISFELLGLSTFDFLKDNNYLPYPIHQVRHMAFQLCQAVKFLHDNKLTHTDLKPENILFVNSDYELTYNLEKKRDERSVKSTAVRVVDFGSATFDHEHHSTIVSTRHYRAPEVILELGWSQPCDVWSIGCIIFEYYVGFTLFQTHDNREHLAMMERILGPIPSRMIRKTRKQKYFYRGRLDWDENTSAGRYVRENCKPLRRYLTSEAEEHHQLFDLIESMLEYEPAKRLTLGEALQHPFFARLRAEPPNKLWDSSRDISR
Sequence of off-target receptors, ion channels, and transporters (Homo sapiens, UniProt P17948) (P17948 27-1338): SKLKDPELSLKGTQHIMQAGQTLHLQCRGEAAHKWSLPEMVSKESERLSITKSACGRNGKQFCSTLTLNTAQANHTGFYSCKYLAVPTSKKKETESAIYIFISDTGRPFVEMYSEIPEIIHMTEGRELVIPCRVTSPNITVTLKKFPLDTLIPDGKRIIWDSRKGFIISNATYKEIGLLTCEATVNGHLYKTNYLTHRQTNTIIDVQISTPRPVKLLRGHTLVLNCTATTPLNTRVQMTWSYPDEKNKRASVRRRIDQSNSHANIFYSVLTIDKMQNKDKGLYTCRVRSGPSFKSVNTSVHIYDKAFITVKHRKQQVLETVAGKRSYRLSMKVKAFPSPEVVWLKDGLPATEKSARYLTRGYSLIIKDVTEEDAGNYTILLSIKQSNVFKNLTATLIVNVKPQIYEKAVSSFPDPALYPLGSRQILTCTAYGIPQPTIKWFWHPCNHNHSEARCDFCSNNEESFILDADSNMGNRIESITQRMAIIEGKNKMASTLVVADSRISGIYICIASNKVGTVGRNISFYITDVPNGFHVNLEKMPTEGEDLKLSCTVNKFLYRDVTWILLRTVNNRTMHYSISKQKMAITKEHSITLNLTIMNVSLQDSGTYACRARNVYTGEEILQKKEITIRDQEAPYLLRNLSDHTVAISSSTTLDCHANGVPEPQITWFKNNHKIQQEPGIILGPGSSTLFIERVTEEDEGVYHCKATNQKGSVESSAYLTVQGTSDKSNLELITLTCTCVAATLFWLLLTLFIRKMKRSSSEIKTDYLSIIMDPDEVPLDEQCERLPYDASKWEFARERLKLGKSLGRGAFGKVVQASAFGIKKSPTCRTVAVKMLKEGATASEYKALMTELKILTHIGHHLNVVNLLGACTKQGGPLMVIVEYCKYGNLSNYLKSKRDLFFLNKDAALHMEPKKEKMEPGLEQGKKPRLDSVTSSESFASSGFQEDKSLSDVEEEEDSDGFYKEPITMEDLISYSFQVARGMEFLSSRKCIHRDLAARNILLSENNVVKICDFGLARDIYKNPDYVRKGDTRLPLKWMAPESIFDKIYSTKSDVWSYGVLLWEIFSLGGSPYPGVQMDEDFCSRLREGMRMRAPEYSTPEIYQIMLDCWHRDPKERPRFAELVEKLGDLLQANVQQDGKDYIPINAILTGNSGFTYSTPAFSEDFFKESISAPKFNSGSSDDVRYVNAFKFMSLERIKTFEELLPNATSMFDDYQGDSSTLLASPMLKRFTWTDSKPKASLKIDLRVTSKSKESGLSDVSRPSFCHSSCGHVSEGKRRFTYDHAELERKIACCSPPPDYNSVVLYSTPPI
Sequence of off-target receptors, ion channels, and transporters (Homo sapiens, UniProt O60674) (O60674 whole entry): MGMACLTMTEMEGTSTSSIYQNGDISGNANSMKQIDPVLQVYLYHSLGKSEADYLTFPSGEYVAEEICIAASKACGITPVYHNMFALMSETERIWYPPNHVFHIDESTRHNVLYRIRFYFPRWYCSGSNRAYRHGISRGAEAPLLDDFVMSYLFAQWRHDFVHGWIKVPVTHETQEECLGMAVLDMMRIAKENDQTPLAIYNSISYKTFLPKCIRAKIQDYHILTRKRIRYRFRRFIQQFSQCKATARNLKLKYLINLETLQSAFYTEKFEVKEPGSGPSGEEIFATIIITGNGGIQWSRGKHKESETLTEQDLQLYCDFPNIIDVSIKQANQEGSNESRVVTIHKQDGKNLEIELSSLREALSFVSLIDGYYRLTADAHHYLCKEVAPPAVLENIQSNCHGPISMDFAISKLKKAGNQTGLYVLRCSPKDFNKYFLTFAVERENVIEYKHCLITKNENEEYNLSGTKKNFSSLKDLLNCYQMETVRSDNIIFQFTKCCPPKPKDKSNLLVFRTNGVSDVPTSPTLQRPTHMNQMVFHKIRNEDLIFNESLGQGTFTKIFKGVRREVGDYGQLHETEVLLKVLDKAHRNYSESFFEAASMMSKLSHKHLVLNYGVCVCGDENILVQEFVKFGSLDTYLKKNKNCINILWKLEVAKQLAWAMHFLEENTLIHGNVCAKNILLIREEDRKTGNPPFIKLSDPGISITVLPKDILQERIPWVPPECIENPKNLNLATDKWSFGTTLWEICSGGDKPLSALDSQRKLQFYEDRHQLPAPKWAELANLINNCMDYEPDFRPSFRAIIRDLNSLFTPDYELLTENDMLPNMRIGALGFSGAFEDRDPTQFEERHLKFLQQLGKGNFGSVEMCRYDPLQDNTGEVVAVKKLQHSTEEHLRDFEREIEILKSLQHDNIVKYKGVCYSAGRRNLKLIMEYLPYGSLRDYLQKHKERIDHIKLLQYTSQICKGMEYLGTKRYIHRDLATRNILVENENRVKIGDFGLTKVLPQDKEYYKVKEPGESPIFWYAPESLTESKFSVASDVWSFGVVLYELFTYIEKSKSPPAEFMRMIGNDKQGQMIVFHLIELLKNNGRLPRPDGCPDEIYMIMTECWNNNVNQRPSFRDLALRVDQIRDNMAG
Sequence of off-target receptors, ion channels, and transporters (Homo sapiens, UniProt P00519) (P00519 whole entry): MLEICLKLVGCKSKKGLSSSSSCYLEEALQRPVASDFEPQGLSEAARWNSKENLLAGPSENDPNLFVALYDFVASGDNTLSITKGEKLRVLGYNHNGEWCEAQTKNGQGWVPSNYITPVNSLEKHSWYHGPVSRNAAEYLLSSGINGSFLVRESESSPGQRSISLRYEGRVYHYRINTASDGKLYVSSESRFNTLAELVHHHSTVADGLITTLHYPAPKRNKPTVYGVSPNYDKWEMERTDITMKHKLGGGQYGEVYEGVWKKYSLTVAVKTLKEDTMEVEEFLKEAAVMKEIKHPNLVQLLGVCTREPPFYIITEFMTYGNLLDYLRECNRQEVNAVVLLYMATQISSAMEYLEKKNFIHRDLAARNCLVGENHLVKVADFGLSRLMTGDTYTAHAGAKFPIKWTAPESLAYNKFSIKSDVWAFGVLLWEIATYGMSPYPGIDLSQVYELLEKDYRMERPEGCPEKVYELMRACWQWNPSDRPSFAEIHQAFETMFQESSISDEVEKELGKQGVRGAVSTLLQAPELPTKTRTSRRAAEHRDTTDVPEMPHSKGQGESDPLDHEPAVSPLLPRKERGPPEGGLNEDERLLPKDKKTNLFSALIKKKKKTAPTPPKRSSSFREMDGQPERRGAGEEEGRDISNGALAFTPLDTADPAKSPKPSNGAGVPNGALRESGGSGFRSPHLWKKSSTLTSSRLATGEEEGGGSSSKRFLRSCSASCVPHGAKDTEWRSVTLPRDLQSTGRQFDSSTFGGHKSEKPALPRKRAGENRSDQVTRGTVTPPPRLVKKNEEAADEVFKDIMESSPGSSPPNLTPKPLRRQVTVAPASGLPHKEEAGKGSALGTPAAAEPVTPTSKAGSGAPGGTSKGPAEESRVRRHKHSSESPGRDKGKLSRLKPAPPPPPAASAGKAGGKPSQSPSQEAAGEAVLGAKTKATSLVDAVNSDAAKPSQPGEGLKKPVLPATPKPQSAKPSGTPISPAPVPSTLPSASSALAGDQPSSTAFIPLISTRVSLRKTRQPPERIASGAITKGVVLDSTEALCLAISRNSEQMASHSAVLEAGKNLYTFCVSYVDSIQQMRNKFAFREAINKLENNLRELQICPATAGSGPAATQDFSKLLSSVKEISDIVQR

Cc1c(Cl)c2c(Cl)c(C)c1-c1c(-c3ccc(F)cc3)sc3ncnc(c13)O[C@@H](C(=O)O)Cc1cc(ccc1OCc1ccnc(-c3ccc(OC[C@H]4COCCO4)cc3)n1)OC[C@@H](CN1CCN(C)CC1)O2 [ABBV-467]
> 10 µM: JAK2 - IC50 [1] | Abl - IC50 [2] | Lck - IC50 [3] | RET - IC50 [4] | Beta1 CHO Human - EC50 ([5]; Bioprofiling 6pt Ag) | Beta1 CHO Human - IC50 ([5]; Bioprofiling 6pt Antag, Norepinephrine) | 5-HT1A CHO Human - EC50 ([6]; Bioprofiling 6pt Ag) | 5-HT1A CHO Human - IC50 ([6]; Bioprofiling 6pt Antag, 5-Carboxytryptamine (5-CT)) | BRAF - IC50 [7] | Flt1 - IC50 [8] | cdk2 - IC50 [9] | Wee1 - IC50 [10] | GRK5 - IC50 [11] | PPARgamma Human - EC50 [12] | TXK - IC50 [13] | Zap70 - IC50 [14] | JNK1 - IC50 [15] | CLK2 - IC50 [16] | Rsk2 - IC50 [17] | MEK1 - IC50 [18] | FAK - IC50 [19] | DDR1 - IC50 [20] | MAP4K2 - IC50 [21] | MST1 - IC50 [22] | IKKE - IC50 [23] | p38 alpha - IC50 [24] | CAMK1D - IC50 [25]
